The text below walks through data of patent US11207285B2, “Diabetes treatment regimens using alpha, alpha-substituted long-chain amphipathic carboxylates” (SYNDROMEX LTD., priority 2016, dated 2021).

Structures are written as SMILES.

Data set [1] concerns fully differentiated 3T3L1 adipocytes. The data set can be described thus: glucose uptake in 3T3L1 adipocytes. Type of data set: cell-based. The settings on record: insulin as positive control. On the procedure:
(§1) The compound 2,2,15,15-tetramethylhexadecane-1,16-dioic acid (also designated M16αα), and also the compounds […] (M18αα) and 2,2,19,19-tetramethyl-[…]-1,20-dioic acid (M20αα), were tested for their effect on glucose uptake and production, and the expression of glucose- and lipid-related genes in in vitro models. […] Inhibition of glucose production was tested in HepG2 human liver cells.

Data set [2] has as its system cultured human HepG2 liver cells. The data set can be described thus: inhibition of lipoprotein production in HepG2 cells. The data set is classed as cell-based.
The next data set has as its system HepG2 human liver cells. The data set can be described thus: inhibition of glucose production in HepG2 cells. Type of data set: cell-based. The method, then:
as §1

In data set [3] the test system is C57BL/KsJ (db/db) Spontaneous T2D mice. The data set can be described thus: glucose lowering effect in db/db mice. The data set is classed as in vivo. The settings on record: once daily oral 30 mg/kg. The method, then: In addition, the glucose lowering effect of the above three compounds M16αα, M18αα and M20αα was tested in C57BL/KsJ (db/db) Spontaneous T2D mice, which serve as a model for T2D. These animals are characterized by hyperphagia, obesity, hyperglycemia and insulin resistance. The mice were treated once daily by oral administration of the tested compound at 30 mg/kg.

The test system of data set [4] is genes that control liver gluconeogenesis and lipid synthesis. Put plainly: expression of glucose- and lipid-related genes in in vitro models. Type of data set: cell-based. The method, then: as §1
A short description of a further data set: half-life in humans. As to conditions: human, in vivo, read-out: half-life (T1/2) (converted). The data set is classed as in vivo. The text has this: (§2) The half-life (T1/2) of Medica compounds in humans differs considerably from their half-life in model animals. […] This difference in half-life could not be expected, and is of considerable significance when designing a new treatment protocol for humans.

Another data set is described as follows: half-life in rats. As to conditions: rat, in vivo, read-out: half-life (T1/2) (converted).
Excerpt: as §2

The next data set is described as follows: half-life in dogs. As to conditions: dog, in vivo, read-out: half-life (T1/2) (converted).
Excerpt: as §2

For the compound `CC(C)(CCCCCCCCCCCCCCCCC(C)(C)C(=O)O)C(=O)O` [M20αα], in data set [1], the glucose uptake result is reported as “increase glucose uptake”. Also, the lipoprotein production result in data set [2] is reported as “significant or full inhibition”. Besides, the hepatic glucose production entry with HepG2 human liver cells is “significant or full inhibition”. Also, in data set [3], the blood glucose levels result was “significantly decrease”, the serum insulin levels result is given as “significantly decrease” and the serum triglyceride levels entry is listed as “significantly decrease”. Moreover, the “expression of genes that control liver gluconeogenesis and lipid synthesis” value in data set [4] is “effective in inhibiting”.

Take `CC(C)(CCCCCCCCCCCCCCC(C)(C)C(=O)O)C(=O)O` [M18αα, 2,2,17,17-tetramethylocta-decane-1,18-dioic acid]: the glucose uptake result in data set [1] is given as “increase glucose uptake”. Besides, the lipoprotein production result in data set [2] is recorded as “significant or full inhibition”. The hepatic glucose production entry in the data set on HepG2 human liver cells is “significant or full inhibition”. In data set [3], the blood glucose levels entry is given as “significantly decrease”, the serum insulin levels result is given as “significantly decrease” and the serum triglyceride levels entry was “significantly decrease”. In addition, the “expression of genes that control liver gluconeogenesis and lipid synthesis” value in data set [4] is “effective in inhibiting”.

Consider `CC(C)(CCCCCCCCCCC(C)(C)CC(=O)O)CC(=O)O` [Medica16-ββ, 3,3,14,14-tetramethylhexadecanedioic acid, reference compound], for which the figures for the half-life in “half-life in humans”, in the data set “half-life in rats” and in “half-life in dogs” were 31.5 ± 12.8 h, 2.7 ± 0.4 h and 25.8 h, respectively.
